Earlier results in patent US8283180B2, “Periodic acid-schiff staining with detection in the infrared range” (Amicus Therapeutics, Inc., priority 2007, dated 2012).

Columns and labels:
[1] = test system: Japanese medaka (Oryzias latipes); conditions: low DCA exposure concentrations; as early as week two of exposure

| Compound | carcinogenicity (rats) | carcinogenicity (mice) | changes in the liver [1] | left-ventricular mass index (infantile Pompe disease) | motor function by the Alberta Infant Motor Scale (AIMS) (infantile Pompe disease; unblinded assessment) |
| --- | --- | --- | --- | --- | --- |
| O=C(O)C(Cl)Cl [DCA, dichloroacetic acid] | carcinogenic | carcinogenic | marked hepatocellular cytoplasmic vacuolation, cytomegaly, karyomegaly, nuclear atypia and multifocal areas of hepatocellular necrosis and loss | – | – |
| Myozyme: enzyme replacement therapy with recombinant α-glucosidase, approved for infantile Pompe disease | – | – | – | improved with treatment | did not improve with treatment |
